Here are results for three compounds from paper PMC4449000, “Acyclovir Has Low but Detectable Influence on HLA-B*57:01 Specificity without Inducing Hypersensitivity” (PLoS ONE, 2015).

“And” between values parts separate entries of the source, which are not always exact repeats. Equal values may be shown once. Where a name gives a salt, the structure may show the parent alone. Read-outs that look alike come from different tables or passages of the source. Ends that are not written are not given here. Some results are limits rather than exact numbers.

Test [1] addresses T1, purified HLA-B*57:01 (Homo sapiens, UniProt P01889, D201E/D98Y/E176V/E187L/E204Q/E69M/E70A/G107R/I90N/K202T/L105A/L119I/N104I/N87E/Q89R/Q94S/R106L/R155S/R180L/R86G/S101N/S121V/S35A/S48A/T118I/V36M/Y140S/Y91M). To be noted: previously observed; cited from earlier work.
Test [2] has as its target T1, purified HLA-B*57:01. Put plainly: HLA binding assay: inhibition of binding of a radiolabeled standard peptide to purified HLA-B*57:01 (competition). Particulars: for number of the 7 peptides ending in I with increased affinity for HLA-B*57:01: 7 individual peptides with I at P9, two independent runs in triplicates (Fig 5); for IC50: Mean ± SEM, S5 Fig, unit inferred.

Test [3] has as its system HLA-B*57:01 positive PBMC. Description: Culture and detection of drug responsive T cells (intracellular IFN-γ, flow cytometry). The class given is cell-based, human. Particulars: 10 μg/mL drug, 14 day culture, restimulation with drug treated C1R.B57; two of two donors. As for the experimental part: Drug responsive short-term T cell lines were produced from cryopreserved PBMC, as previously described. […] From day 3 and every 3 days, 50% of media was replaced and 20 U/ml of recombinant human interleukin (IL)-2 (Peprotech) was added to cultures. […] Samples were surface labeled for CD4 and CD8 expression on ice and then fixed and permeabilized for the detection of intra-cellular IFN-γ, as previously described. Abacavir responsive cells were then detected using flow cytometry (Gallios; Beckman Coulter). Lymphocytes were gated on the basis of forward and side scatter properties. The lymphocyte gate was then gated for CD8, but not CD4, positivity using a Boolean logic gate. The frequency of CD8 and IFN-γ double positive cells was determined using Kaluza software (Beckman Coulter).
Background: Flow cytometry measures light scatter and fluorescence of single cells or particles in a stream.

Test [4] has as its system HLA-B*57:01 single allele transfected 721.221 cell line. To be noted: abacavir; not measured in this paper, no reference printed at b57; cited from earlier work.
Another test has as its target HLA-B*57:01 (Homo sapiens, UniProt P01889, D201E/D98Y/E176V/E187L/E204Q/E69M/E70A/G107R/I90N/K202T/L105A/L119I/N104I/N87E/Q89R/Q94S/R106L/R155S/R180L/R86G/S101N/S121V/S35A/S48A/T118I/V36M/Y140S/Y91M). Description: Direct binding of radiolabeled […] to HLA-B*57:01 without competitor peptide. To be noted: increasing doses of drug, four experimental runs in triplicates (Fig 6A). As for the experimental part: (§1) Quantitative assays to measure the binding affinity of peptides to purified HLA-B*57:01 molecules based on the inhibition of binding of a radiolabeled standard peptide were performed as previously described. Briefly, 1–10 nM of radiolabeled peptide was co-incubated at room temperature with 1 nM to 1 μM purified HLA-B*57:01 in the presence of 1–3 μM human β2-microglobulin (Scripps Laboratories; San Diego, CA) and a mixture of protease inhibitors. After a 2-day incubation, binding of the radiolabeled peptide to the MHC class I molecule was determined by capturing MHC/peptide complexes on Greiner Lumitrac 600 microplates (Greiner Bio-One; Monroe, North Carilina) coated with the W6/32 antibody, and measuring bound counts per minute (cpm) using the TopCount microscintillation […] counter (PerkinElmer; Waltham, Massachusetts). For competition assays, the concentration of peptide yielding IC50 of the binding of the radiolabeled peptide was calculated. Peptides were typically tested at six different concentrations covering a 100,000-fold dose range.
(§2) For direct binding studies in the absence of a competitor peptide, a purified peptide with sequence […] was ordered from Synthetic Biomolecules (San Diego, CA) and its affinity for either HLA-B*57:01 or HLA-B*58:01 was tested in the presence or absence of abacavir, or acyclovir, in a dose dependent manner.

A further test concerns the target HLA-B*58:01 (Homo sapiens, UniProt P01889, A329T/C349S/D201E/D98Y/E176V/E187L/E204Q/E69T/G107R/I218V/I90N/K202T/L105A/L119I/N104I/N87E/Q89R/Q94S/R106L/R155S/R180L/R86G/S101N/S121R/S35A/S48A/T118I/V127L/V306I/V36M/Y140S/Y91M). Description: Direct binding of radiolabeled […] to HLA-B*58:01 (control). Particulars: control allele (Fig 6B). As for the experimental part: as §1, §2

Test [5] has as its system HLA-B*57:01 single allele transfected 721.221 cell line. Description: Peptide elution and LC-MS identification from drug-treated cells. The class given is cell-based, human. How it is done: For elution studies, 4–5 x 10^9 cells from the HLA-B*57:01 single allele transfected 721.221 cell line were used. Treated cells were incubated with acyclovir at a concentration of 500 μg/mL for 14 hr at 37°. Cells were harvested and stored at -80°C. Upon thawing, cells were lysed using cell lysis buffer in the presence of protease inhibitors. The lysate was centrifuged at 100,000 x g for 1 hr and the supernatant was collected and passed through a 0.8/0.2 μm filter (VWR International, TX). The filtrate was collected and passed through a sepharose CL-4B (Sigma-Aldrich, MO) column to capture any remaining materials in the lysate that may clog the antibody columns. The filtrate was then passaged through a column packed with protein A sepharose (PAS) beads (sigma) coated with MK-D6 (MTCC HB-3, VA) antibody which served to as an irrelevant antibody (specific for the mouse class II molecule, I-A^d) used to derive a negative control peptide extract. Next, the filtrate was passed through a second PAS column coated with W6/32 antibody (MTCC HB-95) which captures HLA class I molecules. The columns were washed sequentially with: 1) 2 column volumes of lysis buffer, 2) 20 column volumes of 20 mM Tris-HCL (pH 8.0, 150 mM NaCl), 3) 20 column volumes of 20 mM Tri-HCl (pH 8.0, 1.0 M NaCl), and 4) 20 column volumes of 20 mM Tris-HCl (pH 8.0), and then eluted with 4 column volumes of 0.2 M glacial acetic acid. The eluted peptides were then collected and spun at 3,500g at 4°C until 98% of the solution had passed through Millipore ultrafiltration units with a 3,500 Da cut-off (EMD Millipore, MA) to exclude β-2 microglobulin. The filtrate was then collected and concentrated in vacuo for LC-MS analysis.
Peptides were analyzed by nanoflow high-performance liquid chromatography (HPLC)/microelectrospray ionization, coupled directly to a Thermo Fisher Scientific FT-ICR mass spectrometer, equipped with a home-built, front-end electron transfer dissociation (FETD) source. An aliquot of peptide sample was taken to dryness in a vacuum concentrator. Peptides were amidated in a solution that contained 1M histamine-HCl (20 μL) in 1M pyridine-HCl buffer and 0.1M EDC in pyridine-HCl buffer. The solution was sonicated for 3 hours before being dried in a vacuum concentrator and then reconstituted in 0.1% acetic acid.
Data were acquired as previously described. In brief, a pre-column, loaded with 5×10^7 to 2×10^8 cell equivalents of HLA-B*57:01 eluted peptides was connected with polytetrafluoroethylene tubing (0.06-in. o.d. and 0.012-in. i.d.; Zeus Industrial Products) to the end of an analytical HPLC column (360 μm o.d.×50 μm i.d.) containing 6–7 cm of C18 reverse-phase packing material (5-μm particles; YMC). […]

In the case of `Nc1nc(NC2CC2)c2ncn([C@H]3C=C[C@@H](CO)C3)c2n1` [abacavir, Abacavir sulfate], the “increase in affinity for I and V peptides in the presence of abacavir (PSCPL)” value on purified HLA-B*57:01 [1] is 10 fold. In addition, at purified HLA-B*57:01 [2], the “number of the 7 peptides ending in I with increased affinity for HLA-B*57:01” value is recorded as “all seven”. The “largest change / increase of peptide binding affinity (IC50) for HLA-B*57:01 in the presence of the drug” value at purified HLA-B*57:01 [2] (individual peptides, summary statement) was ≤ 1000 fold and 1,000 fold. Also, in test [3], the “drug specific CD8+/IFN-γ+ T-cell response in PBMC primed and restimulated with the same drug” value is reported as “expanded population of CD8 positive / IFN-γ positive T-cells”. The “peptides with a C-terminal valine presented exclusively in the presence of the drug” value in test [4] is listed as 15. The “increase in the level of bound peptide […] on HLA-B*57:01” value on HLA-B*57:01 (radiolabeled […]) is reported as “up to 5 fold”. Further, the “effect of drug on binding of […] to HLA-B*58:01” value at HLA-B*58:01 (radiolabeled […]) is listed as “unaffected”.

`Nc1nc2c(ncn2COCCO)c(=O)[nH]1` [acyclovir]: at purified HLA-B*57:01 [2], the “number of the 7 peptides ending in I with increased affinity for HLA-B*57:01” value is reported as “two”. Moreover, the “change in HLA-B*57:01 affinity of peptides ending in C” value at purified HLA-B*57:01 [2] (individual peptides with C at P9 (S4 Fig)) was “None of the peptides ending in C showed any change”. Also, on purified HLA-B*57:01 [2] (screen of seven drugs, one experimental run in quadruplicates (S3 Fig)), the “effect on HLA-B*57:01 binding affinity for three 9-mer peptides with a C-terminal valine” value is “small but consistent increase”. Moreover, in test [5] (acyclovir 500 μg/mL, 14 hr, 37°, excludes 91 sequences present in both samples), the “unique peptide sequences identified from the drug treated sample only” value is reported as 169. The “number of eluted peptides with a C-terminal isoleucine in the presence of the drug” value in test [5] (acyclovir 500 μg/mL, 14 hr, includes three peptides present in both samples, vs four in untreated, p = 0.073) is recorded as “twelve”. For the same compound, the “Number of peptides that do not have isoleucine at C terminus (Treated)” value in test [5] (acyclovir treated cells, peptides found in both treated and untreated samples not included) stood at 160. Also, the “Number of peptides that have isoleucine at C terminus (Treated)” value in test [5] (acyclovir treated cells, peptides found in both treated and untreated samples not included, one-sided Fisher's exact test p = 0.0726) is recorded as 9. For the same compound, the “drug specific CD8+/IFN-γ+ T-cell response in PBMC primed and restimulated with the same drug” value in test [3] is given as “could not detect any acyclovir specific response”. The “increase in the level of bound peptide KAAKYRVSV on HLA-B*57:01” value on HLA-B*57:01 (radiolabeled KAAKYRVSV) is given as 2 fold. In addition, the “effect of drug on binding of KAAKYRVSV to HLA-B*58:01” value on HLA-B*58:01 (radiolabeled KAAKYRVSV) is given as “unaffected”.

RARQLNYTI: the IC50 stood at 7.1 ± 1 nM on purified HLA-B*57:01 [2] (0.5 mg/mL acyclovir, p < 0.01 vs vehicle, read-out: IC-50 for HLA-B*57:01, 0.5 mg/mL acyclovir) and 13.7 ± 1.3 nM on purified HLA-B*57:01 [2] (vehicle, read-out: IC-50 for HLA-B*57:01, vehicle).
